From ChEMBL document CHEMBL4261547, “Bitopic fluorescent antagonists of the A2A adenosine receptor based on pyrazolo[4,3-e][1,2,4]triazolo[1,5-c]pyrimidin-5-amine functionalized congeners” (Medchemcomm, 2017)

Molecular target: T1, Adenosine receptor A1 (Homo sapiens) (UniProt P30542)
T1 sequence (whole entry): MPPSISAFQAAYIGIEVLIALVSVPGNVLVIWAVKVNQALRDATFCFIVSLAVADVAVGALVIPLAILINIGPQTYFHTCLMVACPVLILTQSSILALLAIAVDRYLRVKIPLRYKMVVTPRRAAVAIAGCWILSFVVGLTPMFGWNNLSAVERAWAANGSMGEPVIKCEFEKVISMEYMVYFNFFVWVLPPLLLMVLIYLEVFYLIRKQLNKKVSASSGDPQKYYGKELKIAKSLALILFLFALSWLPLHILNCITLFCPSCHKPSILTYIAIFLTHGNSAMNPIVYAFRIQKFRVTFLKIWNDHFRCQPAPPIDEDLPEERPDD
Test: Binding affinity to recombinant human adenosine receptor A1 expressed in HEK293 cell membranes at 50 to 200 nM after 1 hr by FACS analysis relative to control

Activity: < 25%
SMILES: Nc1nc2c(cnn2CCCc2ccc(OCC(=O)NCCCCNC(=O)CCCCCNC(=O)COc3ccc(/C=C/C4=[N+]5C(=Cc6ccc(-c7cccs7)n6[B-]5(F)F)C=C4)cc3)cc2)c2nc(-c3ccco3)nn12
